# Measurements reported in US9777000B2, “Pyrazole derivative” (MOCHIDA PHARMACEUTICAL CO., LTD., priority 2013, dated 2017).
# Molecular target: human PDE10 (Homo sapiens (Human), UniProt Q9Y233)
# Test: Evaluation of enzyme inhibitory activity: human PDE10 inhibitory effect (IMAP TR-FRET)
# Type: biochemical
# Details: cAMP substrate
# Procedure: (Evaluation of Enzyme Inhibitory Activity: Human PDE10 Inhibitory Effect)
# IMAP TR-FRET Phosphodiersterase Evaluation Assay Kit (Molecular Device) was used for the measurement. Ten μL of a diluted test compound having each concentration and 5 μL of the enzyme PDE10 (BPA Bioscience) that had been diluted to 2 ng/mL with 1×IMAP Reaction Buffer (prepared with 5×included with the kit, 10 mM Tris-HCl, pH=7.2, 10 mM MgCl2, 0.05% NaN3, and 0.1% BSA) containing 0.1% BSA were added to a 384-well plate (Corning). The obtained mixture was then pre-incubated at room temperature for 5 minutes. Thereafter, 5 μL of cAMP substrate solution which was included with the kit and diluted to 400 nM with 1×IMAP Reaction Buffer containing 0.1% BSA, was added to the reaction solution, and the obtained mixture was reacted at room temperature for 60 minutes. Thereafter, 60 μL of an IMAP TR-FRET Binding solution included with the kit was further added to the reaction solution, and the obtained mixture was then left for 3 hours or more. Subsequently, using ARVO SX (PerkinElmer), the fluorescent intensity of Terbium (Emission=490 nm) and TR-FRET (Emission=520 nm) in the reaction solution were measured at an excitation wavelength of 340 nm, so as to calculate the amount of the generated 5′-AMP. The count of a well to which a solvent had been added instead of the test compound was set at 0%, and the count of a well to which the enzyme PDE10 had not been added was set at 100%. Thus, the inhibitory activity of each test compound was calculated.
# The PDE10 inhibitory activity of the test compound was indicated with an IC50 value. […] The test compounds are shown in Table 3 (Table 3-1 and Table 3-2).
# Chain of human PDE10 (Q9Y233 whole entry): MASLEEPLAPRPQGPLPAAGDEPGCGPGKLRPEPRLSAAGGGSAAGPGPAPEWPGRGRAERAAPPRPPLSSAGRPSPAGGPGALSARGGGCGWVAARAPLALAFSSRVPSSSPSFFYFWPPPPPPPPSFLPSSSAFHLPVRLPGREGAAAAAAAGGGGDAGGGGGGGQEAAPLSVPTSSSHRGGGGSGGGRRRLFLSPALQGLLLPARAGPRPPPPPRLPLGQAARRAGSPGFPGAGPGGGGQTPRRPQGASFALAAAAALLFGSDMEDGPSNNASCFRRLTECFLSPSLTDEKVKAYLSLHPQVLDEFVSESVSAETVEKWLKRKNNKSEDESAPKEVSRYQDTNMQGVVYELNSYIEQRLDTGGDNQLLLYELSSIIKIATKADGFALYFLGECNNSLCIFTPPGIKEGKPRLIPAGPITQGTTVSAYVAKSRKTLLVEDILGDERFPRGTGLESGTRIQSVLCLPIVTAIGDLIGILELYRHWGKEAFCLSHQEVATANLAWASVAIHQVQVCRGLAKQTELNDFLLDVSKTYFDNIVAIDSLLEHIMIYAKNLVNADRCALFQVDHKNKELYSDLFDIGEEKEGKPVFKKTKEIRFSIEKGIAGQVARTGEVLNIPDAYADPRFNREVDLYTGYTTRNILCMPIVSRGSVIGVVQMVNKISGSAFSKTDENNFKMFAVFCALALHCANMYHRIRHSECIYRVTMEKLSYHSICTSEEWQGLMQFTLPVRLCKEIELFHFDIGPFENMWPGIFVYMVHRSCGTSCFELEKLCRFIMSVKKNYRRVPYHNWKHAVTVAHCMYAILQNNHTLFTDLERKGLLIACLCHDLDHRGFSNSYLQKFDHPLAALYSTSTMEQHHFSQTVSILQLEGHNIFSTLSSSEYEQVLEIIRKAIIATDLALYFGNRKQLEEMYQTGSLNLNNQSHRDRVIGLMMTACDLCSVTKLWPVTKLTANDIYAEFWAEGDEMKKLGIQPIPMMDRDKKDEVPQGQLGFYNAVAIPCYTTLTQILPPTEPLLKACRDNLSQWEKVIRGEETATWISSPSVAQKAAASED
row,Molecule,IC50
1,"Cn1ncc(-c2nc(C(F)F)c(Cl)s2)c1C(=O)NC1CCn2cc(-c3ccccc3)nc2C1 (stereo not shown) [Example 2.5, 4-(5-chloro-4-(difluoromethyl)thiazol-2-yl)-1-methyl-N-(2-phenyl-5,6,7,8-tetrahydroimidazo[1,2-a]pyridin-7-yl)-1H-pyrazole-5-carboxamide]",< 5 nM
2,"Cn1ncc(-c2ccc(C#N)cn2)c1C(=O)Nc1cc2nc(-c3ccccc3)nn2cc1F [Example 3.23, 4-(5-cyanopyridin-2-yl)-N-(6-fluoro-2-phenyl-[1,2,4]triazolo[1,5-a]pyridin-7-yl)-1-methyl-1H-pyrazole-5-carboxamide]",< 5 nM
3,"Cn1ncc(-c2ccc(F)cn2)c1C(=O)Nc1cc2nc(-c3ccccc3)nn2cc1F [Example 3.8, N-(6-fluoro-2-phenyl-[1,2,4]triazolo[1,5-a]pyridin-7-yl)-4-(5-fluoropyridin-2-yl)-1-methyl-1H-pyrazole-5-carboxamide]",< 5 nM
4,"COc1cccnc1-c1cnn(C)c1C(=O)Nc1cc2nc(-c3ccccc3)nn2cc1F [Example 3.7, N-(6-fluoro-2-phenyl-[1,2,4]triazolo[1,5-a]pyridin-7-yl)-4-(3-methoxypyridin-2-yl)-1-methyl-1H-pyrazole-5-carboxamide]",< 5 nM
5,"Cn1ncc(-c2nc(C(F)(F)F)cs2)c1C(=O)Nc1cc2nc(-c3ccccc3)nn2cc1F [Example 3.6, N-(6-fluoro-2-phenyl-[1,2,4]triazolo[1,5-a]pyridin-7-yl)-1-methyl-4-(4-(trifluoromethyl)thiazol-2-yl)-1H-pyrazole-5-carboxamide]",< 5 nM
6,"C[C@@H]1CN(c2nc3cc(NC(=O)c4c(-c5nc(C(F)F)cs5)cnn4C)ccn3n2)C[C@H](C)O1 [Example 3.19, 4-(4-(difluoromethyl)thiazol-2-yl)-N-(2-((2S,6R)-2,6-dimethylmorpholino)-[1,2,4]triazolo[1,5-a]pyridin-7-yl)-1-methyl-1H-pyrazole-5-carboxamide]",< 5 nM
7,"Cc1ccnnc1-c1cnn(C)c1C(=O)Nc1cc2nc(-c3ccccc3)nn2cc1F [Example 3.24, N-(6-fluoro-2-phenyl-[1,2,4]triazolo[1,5-a]pyridin-7-yl)-1-methyl-4-(4-methylpyridazin-3-yl)-1H-pyrazole-5-carboxamide]",< 5 nM
8,"CC(C)c1nsc(-c2cnn(C)c2C(=O)NC2CCn3cc(-c4ccccc4)nc3C2)n1 (stereo not shown) [Example 2.14, 4-(3-isopropyl-1,2,4-thiadiazol-5-yl)-1-methyl-N-(2-phenyl-5,6,7,8-tetrahydroimidazo[1,2-a]pyridin-7-yl)-1H-pyrazole-5-carboxamide]",< 5 nM
9,"Cc1cnc(-c2cnn(C)c2C(=O)NC2CCn3cc(-c4ccccc4)nc3C2)s1 (stereo not shown) [Example 2.15, 1-methyl-4-(5-methylthiazol-2-yl)-N-(2-phenyl-5,6,7,8-tetrahydroimidazo[1,2-a]pyridin-7-yl)-1H-pyrazole-5-carboxamide]",< 5 nM
10,"Cn1ncc(-c2nc(C(F)F)c(Cl)s2)c1C(=O)Nc1ccn2cc(-c3ccccc3)nc2c1 [Example 1.7, 4-(5-chloro-4-(difluoromethyl)thiazol-2-yl)-1-methyl-N-(2-phenylimidazo[1,2-a]pyridin-7-yl)-1H-pyrazole-5-carboxamide]",< 5 nM
11,"Cn1ncc(-c2ncccc2C#N)c1C(=O)Nc1cc2nc(-c3ccccc3)nn2cc1F [Example 3.13, 4-(3-cyanopyridin-2-yl)-N-(6-fluoro-2-phenyl-[1,2,4]triazolo[1,5-a]pyridin-7-yl)-1-methyl-1H-pyrazole-5-carboxamide]",< 5 nM
12,"Cc1ccnc(-c2cnn(C)c2C(=O)NC2CCn3cc(-c4ccccc4)nc3C2)c1 (stereo not shown) [Example 2.22, 1-methyl-4-(4-methylpyridin-2-yl)-N-(2-phenyl-5,6,7,8-tetrahydroimidazo[1,2-a]pyridin-7-yl)-1H-pyrazole-5-carboxamide]",< 5 nM
13,"(R)-N-(6-fluoro-2-(2trifluoromethyl)pyrrolidin-1-yl)-[1,2,4]triazolo[1,5-a]pyridin-7-yl)-1-methyl-4-(6-methylpyridin-2-yl)-1H-pyrazole-5-carboxamide [Example 4.11]",< 5 nM
14,"COc1ncnc(-c2cnn(C)c2C(=O)Nc2cc3nc(-c4ccccc4)nn3cc2F)c1C [Example 3.31, N-(6-fluoro-2-phenyl-[1,2,4]triazolo[1,5-a]pyridin-7-yl)-4-(6-methoxy-5-methylpyrimidin-4-yl)-1-methyl-1H-pyrazole-5-carboxamide]",< 5 nM
15,"Cc1ncnc(-c2cnn(C)c2C(=O)Nc2cc3nc(-c4ccccc4)nn3cc2F)c1C [Example 3.35, 4-(5,6-dimethylpyrimidin-4-yl)-N-(6-fluoro-2-phenyl-[1,2,4]triazolo[1,5-a]pyridin-7-yl)-1-methyl-1H-pyrazole-5-carboxamide]",< 5 nM
16,"COc1cccc(-c2cnn(C)c2C(=O)NC2CCn3cc(-c4ccccc4)nc3C2)n1 (stereo not shown) [Example 2.11, 4-(6-methoxypyridin-2-yl)-1-methyl-N-(2-phenyl-5,6,7,8-tetrahydroimidazo[1,2-a]pyridin-7-yl)-1H-pyrazole-5-carboxamide]",< 5 nM

# Now from value to molecule:
row,IC50,Molecule
1,< 5 nM,"Cc1cncc(-c2cnn(C)c2C(=O)Nc2ccn3nc(N4CC[C@H](F)C4)nc3c2)n1 [Example 4.19, (S)-N-(2-(3-fluoropyrrolidin-1-yl)-[1,2,4]triazolo[1,5-a]pyridin-7-yl)-1-methyl-4-(6-methylpyrazin-2-yl)-1H-pyrazole-5-carboxamide]"
2,< 5 nM,"Cn1ncc(-c2nc(C(F)F)cs2)c1C(=O)NC1CCn2nc(-c3ccccc3)nc2C1 (stereo not shown) [Example 5.17, 4-(4-(difluoromethyl)thiazol-2-yl)-1-methyl-N-(2-phenyl-5,6,7,8-tetrahydro-[1,2,4]triazolo[1,5-a]pyridin-7-yl)-1H-pyrazole-5-carboxamide]"
3,< 5 nM,"COc1ccnc(-c2cnn(C)c2C(=O)Nc2ccn3nc(N4CC[C@H](F)C4)nc3c2)c1 [Example 4.18, (S)-N-(2-(3-fluoropyrrolidin-1-yl)-[1,2,4]triazolo[1,5-a]pyridin-7-yl)-4-(4-methoxypyridin-2-yl)-1-methyl-1H-pyrazole-5-carboxamide]"
4,< 5 nM,"Cn1ncc(-c2nc(C(F)(F)F)cs2)c1C(=O)Nc1ccn2nc(N3CC[C@@H](F)C3)nc2c1 [Example 4.13, (R)-N-(2-(3-fluoropyrrolidin-1-yl)-[1,2,4]triazolo[1,5-a]pyridin-7-yl)-1-methyl-4-(4-(trifluoromethyl)thiazol-2-yl)-1H-pyrazole-5-carboxamide]"
5,< 5 nM,"Cn1ncc(-c2nc(C(F)F)cs2)c1C(=O)Nc1ccn2nc(N3CCCC3)nc2c1 [Example 4.25, 4-(4-(difluoromethyl)thiazol-2-yl)-1-methyl-N-(2-(pyrrolidin-1-yl)-[1,2,4]triazolo[1,5-a]pyridin-7-yl)-1H-pyrazole-5-carboxamide]"
6,< 5 nM,"Cn1ncc(-c2cccnn2)c1C(=O)Nc1cc2nc(-c3ccccc3)nn2cc1F [Example 3.47, N-(6-fluoro-2-phenyl-[1,2,4]triazolo[1,5-a]pyridin-7-yl)-1-methyl-4-(pyridazin-3-yl)-1H-pyrazole-5-carboxamide]"
7,< 5 nM,"Cc1ccnc(-c2cnn(C)c2C(=O)Nc2ccn3nc(N4CCC[C@@H]4C)nc3c2)c1 [Example 4.4, (S)-1-methyl-4-(4-methylpyridin-2-yl)-N-(2-(2-methylpyrrolidin-1-yl)-[1,2,4]triazolo[1,5-a]pyridin-7-yl)-1H-pyrazole-5-carboxamide]"
8,< 5 nM,"Cn1cnc(-c2cnn(C)c2C(=O)Nc2cc3nc(-c4ccccc4)nn3cc2F)c1 [Example 3.48, N-(6-fluoro-2-phenyl-[1,2,4]triazolo[1,5-a]pyridin-7-yl)-1-methyl-4-(1-methyl-1H-imidazol-4-yl)-1H-pyrazole-5-carboxamide]"
9,< 5 nM,"Cc1ccc(-c2cnn(C)c2C(=O)Nc2cc3nc(-c4ccccc4)nn3cc2F)nc1 [Example 3.51, N-(6-fluoro-2-phenyl-[1,2,4]triazolo[1,5-a]pyridin-7-yl)-1-methyl-4-(5-methylpyridin-2-yl)-1H-pyrazole-5-carboxamide]"
10,< 5 nM,"Cc1nc(C)c(C)c(-c2cnn(C)c2C(=O)Nc2cc3nc(-c4ccccc4)nn3cc2F)n1 [Example 3.37, N-(6-fluoro-2-phenyl-[1,2,4]triazolo[1,5-a]pyridin-7-yl)-1-methyl-4-(2,5,6-trimethylpyrimidin-4-yl)-1H-pyrazole-5-carboxamide]"
11,< 5 nM,"Cn1ncc(-c2nc(C(F)F)cs2)c1C(=O)Nc1ccn2nc(N3CC[C@H](F)C3)nc2c1 [Example 4.15, (S)-4-(4-(difluoromethyl)thiazol-2-yl)-N-(2-(3-fluoropyrrolidin-1-yl)-[1,2,4]triazolo[1,5-a]pyridin-7-yl)-1-methyl-1H-pyrazole-5-carboxamide]"
12,< 5 nM,"Cc1cc(C)nc(-c2cnn(C)c2C(=O)Nc2cc3nc(-c4ccccc4)nn3cc2F)n1 [Example 3.44, 4-(4,6-dimethylpyrimidin-2-yl)-N-(6-fluoro-2-phenyl-[1,2,4]triazolo[1,5-a]pyridin-7-yl)-1-methyl-1H-pyrazole-5-carboxamide]"
